The nature of data set [1]: Diversion test in limestone cores. As to conditions: 65.5° C., SDA fluid 5% HCl. How it is done: Diversion: Tests were completed with one-inch diameter and 4 inch length cores of Indiana Limestone. The initial permeability of each was determined with 3% NaCl brine in both the production and treatment directions prior to treatment with the gelled acid fluid. Then the gelled fluid was pumped at a constant pressure of about […] in the treatment direction. The time for acid break-through was also recorded. All tests were completed at 65.5° C. and constant pressure. Three cores were used to test for diversion in each case; two cores were about 18 to about 24 md and 1 core was about 45 to about 60 md. The initial and final permeabilities were determined. After the tests, all cores were CT scanned, cross sectional view, to visualize the wormholing.

The next data set relates to Acartia tonsa. Kind of data set: OSPAR/HOCNF aquatic toxicity test, Acartia tonsa. The class given is in vivo. An excerpt: (§1) The bioaccumulation testing was done according to Organization of Economic Co-operation and Development, Paris, (OECD) Method 117. The biodegradation tests were done according to OECD 306. The toxicity tests were done according to the protocol required for application in the North Sea as recommended by OSPAR (the Oslo Paris Commission) for completion of HOCNF (Harmonized Offshore Chemical Notification Format) requirements. The methods are those in effect as of August, 2003, and the MSDS data and public health, safety and environment data given below are as of August, 2003.
(§2) However, in addition to the excellent toxicity results shown in Table 2, in further OSPAR tests, 2-butanoneoxime had NOEC (No Observable Effect Concentration) values of 8.9 mg/L for Acartia tonsa (48 hours), 1000 mg/L for Scophthalamus maximus juvenile (96 hours), and 99.7 mg/L for Skeletonema Costatum (72 hours), and the 15 day BOD was 6.5%.

A short description of data set [2]: OSPAR/HOCNF aquatic toxicity test, Acartia tonsa. The class given is in vivo. Particulars: Acartia tonsa, in vivo; 48 hr; read-out: Acartia tonsa LC 50 48 hr.
From the text: as §1, §2

Data set [3] concerns Scophthalamus maximus juvenile. The data set is described as follows: OSPAR/HOCNF aquatic toxicity test, Scophthalamus maximus juvenile. Type of data set: in vivo.
From the text: as §1, §2

Data set [4] can be described thus: Bioaccumulation (Log Pow), OECD Method 117. Particulars: component in aqueous composition of Table 2. Type of data set: physicochemical.
From the text: as §1

The subject of the next data set is Skeletonema Costatum. The data set is described as follows: OSPAR/HOCNF aquatic toxicity test, Skeletonema Costatum. Type of data set: in vivo.
From the text: as §1, §2

Data set [5] in a line: Iron reduction as a function of HCl spending. Particulars: reagent 2.00%. How it is done: Iron Reduction Performance: All solutions were prepared as indicated using about 0.5% by volume of a concentrate having about 40 weight percent FeCl3, and analyses were done with a HACH 2000 calorimeter, obtained from Hach Company, Loveland, Colo. Standard analyses were as described in the “Water Analyses Handbook,” Hach Company. Total iron was obtained by the FerroZine procedure by form ation of a purple complex observable at 562 nm. The ferrous iron content was determined by the phenanthroline complex procedure determined at 510 nm. An orange complex is formed which is proportional to the iron content. For each analysis, samples of the test solution were taken and diluted 1:100 with water and the appropriate, premeasured reagent pillows were added to the solution. Measurements were determined calorimetrically employing standards for the analyses. For ferrous content, analyses were made quickly to prevent oxidation due to air. Total iron required 5 minutes reaction time. If ferric content was needed, the content was obtained by difference.
The selected iron reducing agent should […] reduce the ferric iron in acid solutions. […] For each of these tests 2.0% of an approximately 10 to 12% aqueous solution or reducing agent or reducing agent precursor was evaluated. This represents approximately twice the concentration to adequately reduce the quantity of Fe^+3 present.

The conditions of data set [6]: MSDS and public data as of August, 2003; cited from earlier work.
Data set [7] can be described thus: Iron reduction performance: effect of pH and reagent concentration.
The subject of the next data set is Abra alba. The data set is described as follows: OSPAR/HOCNF toxicity test, Abra alba. Type of data set: in vivo. Particulars: printed in the column headed Scophthalamus maximus juvenile EC 50 96 hr.
From the text: as §1

A short description of data set [8]: Acid spending tests with residue analysis at 121° C. As to conditions: 6.89 MPa, six hours.
Protocol: Acid spending tests were designed and implemented to analyze for residue for spending tests completed at 121° C. These tests were done with amounts chosen such that not all the limestone could be dissolved. […] Reducing agents and reducing agent precursors were evaluated and compared with hydrazinium hydrochloride. Indiana Limestone was crushed and approximately 25 grams of the limestone chips were placed in ajar that would fit a small autoclave. The gelled acid (2.25-ml of gelled acid solution per gram of chips) was added to the limestone chips, stirred to mix well, placed in the autoclave, pressurized to 6.89 mPa, heated to 121° C. and maintained for six hours. At the conclusion of the test, the autoclave was cooled and depressurized. The jar and contents were removed for examination and analysis.
The spent gelled acid was poured through a strainer to observe the fluid and to determine whether the gel was broken. The chips were also rinsed with deionized water to remove gel and residue from the chips, which were examined and then dried and the final weight determined. All residues were rinsed from the jar and chips, combined, and filtered through a pre-weighed Whatman 541 filter paper. The filter paper was dried to a stable weight to obtain the residue weight.
The nature of data set [9]: Biodegradation (BOD), OECD 306. Particulars: 28 day.
From the text: as §1

The conditions of data set [10]: OECD 306B, seawater; cited from earlier work.
The conditions of data set [11]: HPLC Method OECD 117; cited from earlier work.
The mark [12] stands for this setting: Core 2 (highest permeability core).
Setting [13] is: Test 2: 90% Spent 15% HCl + 0.50% FeCl3.
The mark [14] stands for this setting: Test 3: 95% Spent 15% HCl + 0.50% FeCl3.
The mark [15] stands for this setting: Test 4: 99% Spent 15% HCl + 0.50% FeCl3.
[16] abbreviates: Test 5: 99.5% Spent 15% HCl + 0.50% FeCl3.
Where [17] appears, read: Test 1: DI water + 0.50% FeCl3 (pH 2.03), reagent concentration 0.50%.
Setting [18] is: Test 1: DI water + 0.50% FeCl3 (pH 2.03), reagent concentration 1.00%.
The mark [19] stands for this setting: Test 1: DI water + 0.50% FeCl3 (pH 2.03), reagent concentration 1.25%.
The mark [20] stands for this setting: Test 2: 15% HCl + 0.50% of a 40% FeCl3 Aqueous Solution, reagent concentration 0.50%.
Setting [21] is: Test 2: 15% HCl + 0.50% of a 40% FeCl3 Aqueous Solution, reagent concentration 1.00%.
The mark [22] stands for this setting: Test 2: 15% HCl + 0.50% of a 40% FeCl3 Aqueous Solution, reagent concentration 1.25%.
[23] abbreviates: Test 2: 15% HCl + 0.50% of a 40% FeCl3 Aqueous Solution, reagent concentration […].
[24] abbreviates: Test 3: 50% water/CaCl2 + 10% 15% HCl + 0.50% FeCl3, reagent concentration 0.50%.
The mark [25] stands for this setting: Test 3: 50% water/CaCl2 + 10% 15% HCl + 0.50% FeCl3, reagent concentration 1.00%.
Setting [26] is: Test 3: 50% water/CaCl2 + 10% 15% HCl + 0.50% FeCl3, reagent concentration 1.25%.
The mark [27] stands for this setting: Test 1: DI water + 0.50% FeCl3 (pH 2.03), reagent concentration 1.50%.
[28] abbreviates: Test 1: DI water + 0.50% FeCl3 (pH 2.03), reagent concentration 2.00%.
[29] abbreviates: Test 2: 15% HCl + 0.50% of a 40% FeCl3 Aqueous Solution, reagent concentration 1.50%.
Where [30] appears, read: Test 2: 15% HCl + 0.50% of a 40% FeCl3 Aqueous Solution, reagent concentration 2.00%.
The mark [31] stands for this setting: Test 3: 50% water/CaCl2 + 10% 15% HCl + 0.50% FeCl3, reagent concentration 1.50%.
Where [32] appears, read: Test 3: 50% water/CaCl2 + 10% 15% HCl + 0.50% FeCl3, reagent concentration 2.00%.

These results are taken from patent US20050065041A1, “GELLED ACID” (SCHLUMBERGER TECHNOLOGY CORPORATION, priority 2003, published 2005).

Converted amounts (≈) assume the structure as drawn. Where two headings read alike, the source gives them in different places.

With `CCC(C)=NO` [2-Butanone oxime], the “Final Permeability” value in data set [1] (Core 1) is recorded as 34.1 md; in [1] (setting [12]), greater than 5000 md; in data set [1] (Core 3), 49.6 md. Moreover, in the data set on Acartia tonsa (48 hours), the “NOEC (No Observable Effect Concentration) Acartia tonsa” value came to 8.9 mg/L. The LC50 at 48 h in data set [2] is 6930 µg/mL (≈ 79.6 mM). Moreover, the EC50 in data set [3] (96 h, read-out: Scophthalamus maximus juvenile EC 50 96 hr) was greater than 3000 µg/mL; in the data set with Skeletonema Costatum (Skeletonema costatum, 72 h, read-out: Skeletonema Costatum EC50 72 hr), 470 µg/mL (≈ 5.39 mM). In data set [3] (96 hours), the “NOEC (No Observable Effect Concentration) Scophthalamus maximus juvenile” value came to 1000 mg/L. Further, the chromatographic logP (usually lipophilicity estimated from chromatographic retention) in data set [4] (octanol/water) was 1.38. Further, the “NOEC (No Observable Effect Concentration) Skeletonema Costatum” value with Skeletonema Costatum (72 hours) is given as 99.7 mg/L.

Regarding `NNC(=O)NN` [Carbohydrazide], the “Iron % reduced” value in data set [5] (Test 1: 15% HCl + 0.50% FeCl3) is reported as 1.8%; in data set [5] (setting [13]) it was 8.0%; in data set [5] (setting [14]), 1.6%; in data set [5] (setting [15]), 20.0%; in data set [5] (setting [16]), 12.3%; in data set [7] (setting [17]) it was 27.3%. The Iron % reduced worked out at 38.5% in [7] (setting [18]); 46.9% in data set [7] (setting [19]); 0.8% in data set [7] (setting [20]); 12.2% in data set [7] (setting [21]); 29.8% in [7] (setting [22]); 0.8% in data set [7] (setting [23]). Moreover, the Iron % reduced in data set [7] (setting [24]) was 13%; in data set [7] (setting [25]), 15%; in data set [7] (setting [26]), 15%. The “Iron Content Fe+2” value in data set [5] (Test 1: 15% HCl + 0.50% FeCl3) came to 20 mg/L; in data set [5] (setting [13]) it was 90 mg/L; in data set [5] (setting [14]), 20 mg/L; in [5] (setting [15]), 160 mg/L; in data set [5] (setting [16]) it was 90 mg/L; in [7] (setting [17]), 390 mg/L. Besides, the “Iron Content Fe+2” value in data set [7] (setting [18]) stood at 550 mg/L; in [7] (setting [19]), 670 mg/L; in [7] (setting [20]), 10 mg/L; in data set [7] (setting [21]), 160 mg/L; in data set [7] (setting [22]) it was 390 mg/L; in data set [7] (setting [23]), 10 mg/L. For the same molecule, the “Iron Content Fe+2” value in data set [7] (setting [24]) was 160 mg/L; in data set [7] (setting [25]), 190 mg/L; in data set [7] (setting [26]) it was 190 mg/L. For the same molecule, the hazard rating result in data set [6] was “harmful and an irritant”. The EC50 with Skeletonema Costatum (Skeletonema costatum, 72 h; read-out: Skeletonema Costatum EC50 72 hr) was 56.7 µg/mL (≈ 0.629 mM).

Turning to `Cl.NN` [Hydrazinium hydrochloride], the Abra alba toxicity in the data set on Abra alba stood at 96 mg/L. In addition, the “Final Permeability” value is on record as 14.1 md in [1] (Core 1), greater than 5000 md in data set [1] (setting [12]) and 6.8 md in [1] (Core 3). Moreover, the “Acartia tonsa LC 50 48 hr” value in the data set with Acartia tonsa (48 hr) amounted to 0.37 µg/mL. The hazard rating result in data set [6] is on record as “toxic by all routes”. Also, the “Bioaccumulation Log Pow” value in data set [4] is on record as less than 0. Besides, the “Residue Remaining” value in [8] is recorded as 0.278 g. In the data set with Skeletonema Costatum (24 hr), the “Skeletonema Costatum EC50 24 hr” value is 0.38 µg/mL. Besides, in [9], the “Biodegradability BOD28 day” value is 84%.

In the case of `CCN(O)CC` [Diethylhydroxylamine, Diethylhydroxyl amine], the “Iron % reduced” value in data set [5] (Test 1: 15% HCl + 0.50% FeCl3) was 54.4%; in data set [5] (setting [13]) it was 66.4%; in data set [5] (setting [14]), 74.4%; in data set [5] (setting [15]), 88.8%; in data set [5] (setting [16]) it was 89.0%; in data set [7] (setting [17]), 65.7%. The Iron % reduced is 73.5% in data set [7] (setting [18]); 75.5% in [7] (setting [19]); 84.3% in data set [7] (setting [27]); 89.2% in [7] (setting [28]); 34.3% in data set [7] (setting [20]); 48.0% in [7] (setting [21]). For the same molecule, the Iron % reduced in data set [7] (setting [29]) is reported as 52.9%; in [7] (setting [30]) it was 83.3%; in data set [7] (setting [24]), 25%; in [7] (setting [25]) it was 42%; in [7] (setting [31]) it was 47%; in [7] (setting [32]), 61%. Also, the “Iron Content Fe+2” value amounted to 620 mg/L in [5] (Test 1: 15% HCl + 0.50% FeCl3); 750 mg/L in data set [5] (setting [13]); 930 mg/L in [5] (setting [14]); 710 mg/L in data set [5] (setting [15]); 650 mg/L in data set [5] (setting [16]); 670 mg/L in [7] (setting [17]). The “Iron Content Fe+2” value is reported as 750 mg/L in data set [7] (setting [18]); 770 mg/L in [7] (setting [19]); 860 mg/L in [7] (setting [27]); 910 mg/L in data set [7] (setting [28]); 350 mg/L in data set [7] (setting [20]); 490 mg/L in [7] (setting [21]). In addition, the “Iron Content Fe+2” value in data set [7] (setting [29]) is reported as 540 mg/L; in [7] (setting [30]) it was 850 mg/L; in data set [7] (setting [24]), 310 mg/L; in [7] (setting [25]), 520 mg/L; in data set [7] (setting [31]) it was 590 mg/L; in data set [7] (setting [32]) it was 760 mg/L. Moreover, the biodegradation entry in data set [10] is reported as “less than 60%”. For the same molecule, the hazard rating entry in [6] was “harmful and an irritant”. Also, the “bioaccumulation (Log Pow), literature value” in data set [11] was 0.43.

Turning to `NN` [Hydrazine], the hazard rating entry in data set [6] was “toxic to aquatic species”.
